Test system: Plasmopara viticola
Test: Plasmopara viticola/Grape/Curative (Grape Downy Mildew)
Assay type: in vivo
Conditions: 200 ppm; grape seedlings cv. Gutedel, inoculated one day before application; compared to untreated
Description: Plasmopara viticola/Grape/Curative (Grape Downy Mildew)
5-week-old grape seedlings cv. Gutedel are inoculated by spraying a sporangia suspension on their lower leaf surface one day before application. The inoculated grape plants are sprayed in a spray chamber with the formulated test compound diluted in water. The inoculated test plants are incubated at 22° C. and 100% rh in a greenhouse and the percentage leaf area covered by disease is assessed when an appropriate level of disease appears on untreated check plants (4-6 days after application).

CSC1CN(C(=O)Cn2nc(C(F)F)cc2C(F)F)CCC1c1nc(C2=NOC(c3c(F)cccc3F)C2)cs1 (stereo not shown) [I.az.223, 2-[3,5-bis(difluoromethyl)pyrazol-1-yl]-1-[4-[4-[5-(2,6-difluorophenyl)-4,5-dihydroisoxazol-3-yl]thiazol-2-yl]-3-methylsulfanyl-1-piperidyl]ethanone]
disease control: at least 80%

From US20150031541A1 (priority 2012, published 2015)
